≈ marks a conversion by molar mass, not a printed value. Where “and” joins values, the source holds several entries; their conditions need not be identical. Identical values can stand only once. Marks after values point to notes of the source that are not given here.
Assays:
[1] = system: P. aeruginosa; test: Checkerboard combination with antibiotic (FIC); type: cell-based, Pseudomonas aeruginosa; settings: combined with ciprofloxacin
[2] = system: S. flexneri; test: Checkerboard combination with antibiotic (FIC); type: cell-based, Shigella flexneri; settings: combined with ciprofloxacin
Procedure: (§1) The inoculum was initially prepared as described above. The test microorganisms were inoculated into a 96-well microtitre plates and a serial dilution of two antimicrobial agents: antibiotic and MeOH extract, compound 2 or 4. Each well consisted of unique combination of test sample and antibiotic concentrations. The plates were then incubated for 24 h at 37 °C. The analyses were performed in triplicates. And the antimicrobial agents interactions were evaluated by calculating the fractional inhibitory concentration (FIC) indices. The FIC is defined as follows: MIC of antibiotic tested in combination/MIC of antibiotic tested alone + MIC of extract/compound tested in combination/MIC of extract/compound tested alone. The FIC index is interpreted as FIC ≤ 0.5: synergistic effect, 0.5 < FIC ≤1: additive effect, 1 < FIC ≤2: indifferent effect, and FIC > 2.0: antagonistic effect.

[3] = system: S. aureus; test: Checkerboard combination with antibiotic (FIC); type: cell-based, Staphylococcus aureus; settings: combined with ciprofloxacin
[4] = system: MSSA01; test: Checkerboard combination with antibiotic (FIC); type: cell-based, Staphylococcus aureus; settings: combined with ciprofloxacin
[5] = system: MRSA03; test: Checkerboard combination with antibiotic (FIC); type: cell-based, Staphylococcus aureus; settings: combined with ciprofloxacin
[6] = system: C. albicans; test: Checkerboard combination with antibiotic (FIC); type: cell-based, Candida albicans; settings: combined with fluconazole
[7] = system: C. neoformans; test: Checkerboard combination with antibiotic (FIC); type: cell-based, Cryptococcus neoformans; settings: combined with fluconazole
[8] = DPPH free radical scavenging assay; type: biochemical; settings: mean ± SD, triplicate
Procedure: The free radical scavenging activity of extracts and compounds was evaluated according to described methods. The EC50 (μg/ml), which is the amount of sample necessary to inhibit by 50% the absorbance of free radical DPPH was calculated. Vitamin C was used as a standard control. All the analyses were carried out in triplicate.

[9] = Gallic acid equivalent antioxidant capacity (GEAC) assay; type: biochemical; settings: laccase/ABTS, 420 nm after 240 s; mean ± SD
Procedure: The GEAC test was done as previously described with slight modifications. In a quartz cuvette, to 950 μL acetate buffer (pH =5.0, 100 mM), the following were added: 20 μL laccase (1 mM stock solution), 20 μL test sample, 10 μL ABTS (2,2′-azinobis(3-ethylbenzothiazoline-6-sulfonic acid) (74 mM stock solution). The purification of laccase from Sclerotinia sclerotiorum was done according to the protocol described. The sample concentrations in the assay mixture were 800, 400, 200, 100, 10 μg/mL for the extracts and 200, 100, 50, 25, 12.5, 6.25, 3.125, 1.56 μg/mL for the isolated compounds. The content of the generated ABTS^●+ radical was measured at 420 nm after 240 s reaction time and was converted to gallic acid equivalents by the use of a calibration curve (Pearson’s correlation coefficient: r = 0.997) constructed with 0, 4, 10, 14, 28, 56, 84 μM gallic acid standards rather than Trolox. Experiments were done in triplicate.

[10] = system: P. aeruginosa; test: Cell membrane leakage assay (260 and 280 nm absorbing material); type: cell-based, Pseudomonas aeruginosa; settings: at concentrations equal to or two times MIC, concentration dependent
Procedure: (§2) The alteration of cell membrane of P. aeruginosa and S. flexneri was evaluated by measuring the optical densities at 260 nm and 280 nm of the bacterial suspensions in the presence and absence of MeOH extract and compound 2 using the method described by Karsha and Lakshmi.

[11] = system: S. flexneri; test: as above; type: cell-based, Shigella flexneri; settings: at concentrations equal to or two times MIC, concentration dependent
Procedure: as §2

[12] = system: S. flexneri; test: Sugar leakage through membrane of bacteria; type: cell-based, Shigella flexneri; settings: ½ MIC, 2 MIC, 12 h
[13] = system: respiratory chain dehydrogenase in P. aeruginosa; test: Respiratory chain dehydrogenase enzyme activity (TTC reduction); type: cell-based, Pseudomonas aeruginosa; settings: increasing concentration, 0, 30, 60 min
[14] = system: respiratory chain dehydrogenase in S. flexneri; type: cell-based, Shigella flexneri; settings: 0, 30, 60 min
[15] = system: bacterial and yeast species; test: Checkerboard combination with antibiotics, whole panel; type: cell-based; settings: overall statement over the microorganisms tested
Procedure: as §1

[16] = system: Pseudomonas aeruginosa ATCC27853; test: Broth microdilution MIC/MMC
[17] = system: Shigella flexneri SDINT; test: Broth microdilution MIC/MMC
[18] = system: Staphylococcus aureus ATCC25923; test: Broth microdilution MIC/MMC
[19] = system: methicillin sensitive S. aureus MSSA01; test: Broth microdilution MIC/MMC
[20] = system: methicillin resistant S. aureus MRSA03; test: Broth microdilution MIC/MMC
[21] = system: Candida albicans ATCC10231; test: Broth microdilution MIC/MMC
[22] = system: Cryptococcus neoformans H99; test: Broth microdilution MIC/MMC
[23] = system: P. aeruginosa; test: Sugar leakage through membrane of bacteria; settings: ½ MIC, 2 MIC, 12 h
Procedure: After incubation, the mixture was centrifuged at 12,000 rpm and the supernatant was collected. The concentration of reducing sugar was determined spectrophotometrically at 550 nm using 3–5 dinitro-salicylic acid (DNS) [29].

[24] = system: red blood cells (RBCs); type: cell-based, Wistar rats (Rattus novergicus)
Procedure: Three male Wistar rats (Rattus novergicus), aged 10–12 weeks and weighing 230 to 240 g were used. These animals were bred in the animal house of the University of Dschang, Cameroon. Efforts were also made to minimize animal suffering and to reduce the number of animal used in the experiment. All the rats were anaesthesized via intraperitoneal injection of the mixture of ketamine (50 mg/ kg body weight, BW) and xylazine (10 mg /kg BW), in a dose that is commonly used for operation purposes. Subsequently the unconscious animals were decapitated swiftly and the whole blood (10 mL) was collected by cardiac puncture into a conical tube containing Ethylene Diamine Tetra Acetic Acid (EDTA) as an anticoagulant. Erythrocytes were obtained by centrifugation at room temperature for 10 min at 1000 x g and were washed three times in PBS buffer. The cytotoxicity was evaluated as previously described.
The cytotoxic activity of extracts and isolated compounds from R. abyssinicus was studied by assessing the haemolytic activity against red blood cells (RBCs) using Triton X-100 as a positive control.

Molecule: COc1cc(O)c2c(c1)C(=O)c1cc(C)cc(O)c1C2=O [Compound 2, Physcion]
- Interpretation (of FIC index) [1]: Synergistic (FIC ≤ 0.5: synergistic effect)
- FICEx / FIC2 / FIC5 (MIC of extract/compound tested in combination/MIC of extract/compound tested alone) ([1]; checkerboard): 0.125
- FICA (MIC of antibiotic tested in combination/MIC of antibiotic tested alone) ([1]; checkerboard, 24 h at 37 °C): 0.125
- Interpretation (of FIC index) [2]: Synergistic (FIC ≤ 0.5: synergistic effect)
- FIC (fractional inhibitory concentration index) ([2]; checkerboard): 0.281
- FICEx / FIC2 / FIC5 (MIC of extract/compound tested in combination/MIC of extract/compound tested alone) ([2]; checkerboard): 0.25
- FICA (MIC of antibiotic tested in combination/MIC of antibiotic tested alone) ([2]; checkerboard, 24 h at 37 °C): 0.031
- Interpretation (of FIC index) [3]: Synergistic (FIC ≤ 0.5: synergistic effect)
- FIC (fractional inhibitory concentration index) ([3]; checkerboard): 0.375
- FICEx / FIC2 / FIC5 (MIC of extract/compound tested in combination/MIC of extract/compound tested alone) ([3]; checkerboard): 0.125
- FICA (MIC of antibiotic tested in combination/MIC of antibiotic tested alone) ([3]; checkerboard, 24 h at 37 °C): 0.25
- FIC (fractional inhibitory concentration index) [4]: 0.5625
- FICEx / FIC2 / FIC5 (MIC of extract/compound tested in combination/MIC of extract/compound tested alone) [4]: 0.5
- FICA (MIC of antibiotic tested in combination/MIC of antibiotic tested alone) ([4]; 24 h at 37 °C): 0.0625
- FIC (fractional inhibitory concentration index) [5]: 0.5625
- FICEx / FIC2 / FIC5 (MIC of extract/compound tested in combination/MIC of extract/compound tested alone) [5]: 0.5
- FICA (MIC of antibiotic tested in combination/MIC of antibiotic tested alone) ([5]; 24 h at 37 °C): 0.0625
- Interpretation (of FIC index) [6]: Synergistic (FIC ≤ 0.5: synergistic effect)
- FIC (fractional inhibitory concentration index) ([6]; checkerboard): 0.125
- FICEx / FIC2 / FIC5 (MIC of extract/compound tested in combination/MIC of extract/compound tested alone) ([6]; checkerboard): 0.0625
- FICA (MIC of antibiotic tested in combination/MIC of antibiotic tested alone) ([6]; checkerboard, 24 h at 37 °C): 0.0625
- Interpretation (of FIC index) [7]: Synergistic (FIC ≤ 0.5: synergistic effect)
- FIC (fractional inhibitory concentration index) ([7]; checkerboard): 0.125
- FICEx / FIC2 / FIC5 (MIC of extract/compound tested in combination/MIC of extract/compound tested alone) ([7]; checkerboard): 0.0625
- FICA (MIC of antibiotic tested in combination/MIC of antibiotic tested alone) ([7]; checkerboard, 24 h at 37 °C): 0.0625
- DPPH free radical scavenging activity (EC50) [8]: 3.08 ± 0.44^e μg/mL
- Gallic acid equivalent antioxidant capacity (GEAC) [9]: 104.87 ± 1.43 μg/mL and 106.03 ± 0.87^d μg/mL
- leakage of biological material absorbing at 260 and 280 nm [10]: induced leakage
- leakage of biological material absorbing at 260 and 280 nm [11]: induced leakage
- appearance of reducing sugar in the bacterial culture suspension [12]: increased
- respiratory chain dehydrogenase activity (TPF formed) [13]: significant decrease in the TPF formed
- respiratory chain dehydrogenase activity (TPF formed) [14]: significant decrease in the TPF formed
- effect of the association with ciprofloxacin (bacteria) / fluconazole (yeasts) [15]: synergistic
- MMC/MIC ([16]; P. aeruginosa): 2
- MMC ([16]; P. aeruginosa, sub-culturing after broth microdilution): 16 µg/mL
- MIC ([16]; Pseudomonas aeruginosa, ATCC27853): 8 µg/mL (≈ 28.1 µM)
- MMC/MIC ([17]; S. flexneri): 2
- MMC ([17]; S. flexneri, sub-culturing after broth microdilution): 16 µg/mL
- MIC ([17]; Shigella flexneri): 8 µg/mL (≈ 28.1 µM)
- MMC/MIC ([18]; S. aureus): 1
- MMC ([18]; S. aureus, sub-culturing after broth microdilution): 8 µg/mL
- MIC ([18]; Staphylococcus aureus, ATCC25923): 8 µg/mL (≈ 28.1 µM)
- MMC/MIC ([19]; MSSA01): 2
- MMC ([19]; MSSA01, sub-culturing after broth microdilution): 32 µg/mL
- MIC ([19]; Staphylococcus aureus): 16 µg/mL (≈ 56.3 µM)
- MMC/MIC ([20]; MRSA03): 2
- MMC ([20]; MRSA03, sub-culturing after broth microdilution): 32 µg/mL
- MIC ([20]; Staphylococcus aureus): 16 µg/mL (≈ 56.3 µM)
- MMC/MIC ([21]; C. albicans): 1
- MMC ([21]; C. albicans, sub-culturing after broth microdilution): 8 µg/mL
- MIC ([21]; Candida albicans, ATCC10231): 8 µg/mL (≈ 28.1 µM)
- MMC/MIC ([22]; C. neoformans): 1
- MMC ([22]; C. neoformans, sub-culturing after broth microdilution): 8 µg/mL
- MIC ([22]; Cryptococcus neoformans, H99): 8 µg/mL (≈ 28.1 µM)
- appearance of reducing sugar in the bacterial culture suspension [23]: increased

Molecule: Triton X-100
- lysis of RBCs [24]: 100%
